From patent publication US10058525B2, “Application of chlorogenic acid in preparing medicines for treating lupus erythematosus” (SICHUAN JIUZHANG BIOLOGICAL SCIENCE AND TECHNOLOGY CO., LTD., priority 2015, dated 2018) come the findings set out here.

Entries after “also recorded” stand apart in the source; their conditions may differ.

Assay [1] has as its system ANA. In words: Serologic detection of ANA by immunofluorescence on HEp-2 cell sheets, serum of UV + LPS lupus model mice. Format: in vivo, BALB/c mice. The settings on record: artesunate, 28 days, ×200. On the procedure:
The back of mice was shaved and acutely exposed to Ultraviolet of 2 h/d*3 d, with a distance of 30 cm. After exposure to UV, 2.5 mg/kg of LPS was administrated once by ip, and after 24 h, the model was successfully established; the mice in the normal control group received normal saline via ip. 24 h after injection of LPS (ip), medicines were given to the model mice by intragastric administration. Chlorogenic acid test groups received high, middle, and low doses of medicines, by intragastric administration at a respective dosage of 10 mg/kg*d, 20 mg/kg*d, and 40 mg/kg*d. The positive control group A received 2 mg/kg*d of artesunate by stomach perfusion, while the positive control group B received 1 mg/kg*d of prednisone by stomach perfusion. Mice in the model and normal control group all received 0.4 ml/mouse normal saline by gavage. After 15 days of administration, animals in each group were taken blood by separating eyeballs on days 14, 21, 28, and after cultured in water bath at 37° C. for 1 h, the blood sample was centrifugated at 2000 r/min for 5 min, to draw serum for use. On day 21, after blood collection, animals were sacrificed by dislocation, followed by collection of liver and kidney, and they were placed in fixative solutions of electron microscope and light microscrope, respectively. Serum of mice was diluted at 1:100 with special buffer solution of Shenzhen Hengjia, and then 200 μL of diluted serum was respectively added to the reactive tank with corresponding number, cultured in the incubator at 37° C. for 30 min, and washed with the buffer solution four times, 2 min for each time; 200 μL of diluted biotin goat anti-mouse IgG (1:100) was added, cultured in the incubator at 37° C. for 30 min, and then washed with the buffer solution four times, 2 min for each time; 100 μL of diluted HRP-avidin (1:100) was added, cultured in the incubator at 37° C. for 30 min, and then washed as mentioned-above; reactive solutions A and B were added till appearance of positive bands, then washed with the buffer solution. Compared with the standard bands of ENA polypeptide antibody spectrum in the same kit, if the positive bands appeared at 28/29,13.5 ku polypeptide; 15,16.5,38 kupolypeptide; 52 kupolypeptide and 47/48,45 kupolypeptide, that can be determined as anti-Sm, anti-Rib, anti-ssA, and anti-ssB positive antibody. Serum was diluted with PBS at 1:40, then 20-30 μL of diluted serum was dropped into the scrobiculus of HEp-2 cell sheets, each cell sheet for each group. In the process of dropping serum, it should be noted that the surface of cell sheet can not be touched. After addition of serum, cell sheet was placed in wet box and kept for 30 min at room temperature (25° C.). […]

The test system of assay [2] is ANA. The assay is described as above. The format is in vivo, BALB/c mice. The settings on record: positive controls (artesunate 2 mg/kg*d, prednisone 1 mg/kg*d) by stomach perfusion. Details: key: (+): positive; (−): negative; (++++): intense fluorescence; (+++): stronger fluorescence; (++): weeker fluorescence. On the procedure:
(§1) The back of mice was shaved and acutely exposed to Ultraviolet of 2 h/d*3 d, with a distance of 30 cm. After exposure to UV, 2.5 mg/kg of LPS was administrated once by ip, and after 24 h, the model was successfully established; the mice in the normal control group received normal saline via ip. 24 h after injection of LPS (ip), medicines were given to the model mice by intragastric administration. Chlorogenic acid test groups received high, middle, and low doses of medicines, by intragastric administration at a respective dosage of 10 mg/kg*d, 20 mg/kg*d, and 40 mg/kg*d. The positive control group A received 2 mg/kg*d of artesunate by stomach perfusion, while the positive control group B received 1 mg/kg*d of prednisone by stomach perfusion. Mice in the model and normal control group all received 0.4 ml/mouse normal saline by gavage. After 15 days of administration, animals in each group were taken blood by separating eyeballs on days 14, 21, 28, and after cultured in water bath at 37° C. for 1 h, the blood sample was centrifugated at 2000 r/min for 5 min, to draw serum for use. On day 21, after blood collection, animals were sacrificed by dislocation, followed by collection of liver and kidney, and they were placed in fixative solutions of electron microscope and light microscrope, respectively. Serum of mice was diluted at 1:100 with special buffer solution of Shenzhen Hengjia, and then 200 μL of diluted serum was respectively added to the reactive tank with corresponding number, cultured in the incubator at 37° C. for 30 min, and washed with the buffer solution four times, 2 min for each time; 200 μL of diluted biotin goat anti-mouse IgG (1:100) was added, cultured in the incubator at 37° C. for 30 min, and then washed with the buffer solution four times, 2 min for each time; 100 μL of diluted HRP-avidin (1:100) was added, cultured in the incubator at 37° C. for 30 min, and then washed as mentioned-above; reactive solutions A and B were added till appearance of positive bands, then washed with the buffer solution. Compared with the standard bands of ENA polypeptide antibody spectrum in the same kit, if the positive bands appeared at 28/29,13.5 ku polypeptide; 15,16.5,38 kupolypeptide; 52 kupolypeptide and 47/48,45 kupolypeptide, that can be determined as anti-Sm, anti-Rib, anti-ssA, and anti-ssB positive antibody. Serum was diluted with PBS at 1:40, then 20-30 μL of diluted serum was dropped into the scrobiculus of HEp-2 cell sheets, each cell sheet for each group. In the process of dropping serum, it should be noted that the surface of cell sheet can not be touched. After addition of serum, cell sheet was placed in wet box and kept for 30 min at room temperature (25° C.). After 30 min, the cell sheet was taken out, and serum was carefully washed out with PBS, then carefully washed twice with PBS, 5 min for each time; after washing, the remained PBS was removed by special absorbent paper of […] company (In this process, it should be noted that becoming dry of cell substrates will affect the results). 20-30 μL of diluted (PBS, 1:100) FITC goat anti-mouse IgG was added by dropping, and then incubated in wet box at room temperature for 30 min. After washing with PBS, steps were same to above. The remained PBS was removed by absorbent paper, and 1-2 drops of fluorescent mounting media were added to the cell sheet. The cover glass was mounted, observed under Olympus BH-2 universal microscope, and then photographed.

Assay [3] deals with ANA. The description is as above. The format is in vivo, BALB/c mice. On the set-up: key: (+): positive; (−): negative; (++++): intenseintensity; (+++): stronger fluorescent intensity. The settings on record: day 14; positive controls (artesunate 2 mg/kg*d, prednisone 1 mg/kg*d) by stomach perfusion. On the procedure: as §1
Assay [4] concerns lupus erythematosus model mice (renal glomerular capsule wall epithelial cells). The assay can be described thus: Electron microscope observation of kidney samples, lupus model mice. The settings on record: positive controls (artesunate, prednisone), 21 days; compared with the model group. Format: in vivo, BALB/c mice. The method, then: (§2) The back of mice was shaved and acutely exposed to Ultraviolet of 2 h/d*3 d, with a distance of 30 cm. After exposure to UV, 2.5 mg/kg of LPS was administrated once by ip, and after 24 h, the model was successfully established; the mice in the normal control group received normal saline via ip. 24 h after injection of LPS (ip), medicines were given to the model mice by intragastric administration. Chlorogenic acid test groups received high, middle, and low doses of medicines, by intragastric administration at a respective dosage of 10 mg/kg*d, 20 mg/kg*d, and 40 mg/kg*d. The positive control group A received 2 mg/kg*d of artesunate by stomach perfusion, while the positive control group B received 1 mg/kg*d of prednisone by stomach perfusion. Mice in the model and normal control group all received 0.4 ml/mouse normal saline by gavage. After 15 days of administration, animals in each group were taken blood by separating eyeballs on days 14, 21, 28, and after cultured in water bath at 37° C. for 1 h, the blood sample was centrifugated at 2000 r/min for 5 min, to draw serum for use. On day 21, after blood collection, animals were sacrificed by dislocation, followed by collection of liver and kidney, and they were placed in fixative solutions of electron microscope and light microscrope, respectively. On day 21, the sample used for observation under electron microscope was fixed in mixed stationary solution of 2% paraformaldehyde+0.25% glutaral for 4 h, rinsed with TBS, treated with 1% osmic acid, followed by fixation for 1 h, rinsed with buffer solution, dehydrated with acetone, dyed with uranyl acetate for 2 h, macerated in Epon812 and embedded, and cut into slices with LEICA ultramicrotome. The slices were stained with lead solution, and the sample was observed under transmission electron microscope when it was dry.

Assay [5] has as its system ENA polypeptide antibodies (anti-Sm, anti-Rib, anti-ssA, anti-ssB). The assay can be described thus: Serologic detection of ENA polypeptide antibodies by immunoblotting in serum of UV + LPS lupus model mice. The following applies: for Anti-Rib / Anti-Sm / Anti-ssA / Anti-ssB: positive controls (artesunate 2 mg/kg*d, prednisone 1 mg/kg*d) by stomach perfusion; for ENA polypeptide antibodies found positive (FIG. 1): treated 14 days, positive controls (artesunate, prednisone). On the set-up: key to Anti-Rib: (+): positive; (−): negative; key to Anti-Sm / Anti-ssA / Anti-ssB: (+): positive; (−): negative; (++++): intenseintensity; (+++): stronger fluorescent intensity. Format: in vivo, BALB/c mice. The method, then:
as §1
A general note: Immunoblotting shows a protein as a band on a membrane.

Assay [6] concerns lupus erythematosus model mice (kidney, liver). The assay can be described thus: Triple staining (silver staining) of kidney and liver sections under light microscope, lupus model mice. Format: in vivo, BALB/c mice. The settings on record: positive controls (artesunate, prednisone); for basilar membrane of renal glomerulus and tubule, pathological section: 21 days; for glomerular basement membrane thickness compared with the normal mice (FIG. 9, FIG. 10): 28 days, ×50. The method, then: as §2, with “respectively.” for “respectively. On day 21, the sample used for observation under electron microscope was fixed in mixed stationary solution of 2% paraformaldehyde+0.25% glutaral for 4 h, rinsed with TBS, treated with 1% osmic acid, followed by fixation for 1 h, rinsed with buffer solution, dehydrated with acetone, dyed with uranyl acetate for 2 h, macerated in Epon812 and embedded, and cut into slices with LEICA ultramicrotome. The slices were stained with lead solution, and the sample was observed under transmission electron microscope when it was dry.”
[…] The thickness of slice is 3 μm, and at beginning of staining, wax was routinely deprived to water. After oxidation with 0.5% periodic acid, the slice was macerated in hexamine silver fluid for about 2 h (constant temperature 58° C.), washed with distilled water, dyed with hematoxylin for 1 min. After washing with water, the slice was dyed by dropping the ponceau staining solution for 5 min, differentiated with 70% ethanol, dehydrated with gradient ethanol, cleared with xylene, and sealed with neutral gum.

For the next assay, the system named is lupus erythematosus. In words: Screening medicines for treatment of lupus erythematosus. The following applies: screening of extracts and potency constituents; no method given.

With `C[C@H]1[C@H](OC(=O)CCC(=O)O)O[C@@H]2O[C@@]3(C)CC[C@H]4[C@H](C)CC[C@@H]1[C@@]24OO3` [Artesunate, artesunate, reference compound], the “fluorescence intensity of ANA (FIG. 5)” value in the assay on ANA [1] was “doesn't decrease”. Moreover, the results for the ANA entry in the assay on ANA [2] (day 21), with ANA [2] (day 28) and in the assay with ANA [3] were “(+++)”, “(+++)” and “(++++)”, respectively. Moreover, the “proliferative degree of renal glomerular capsule wall epithelial cells” value in assay [4] is given as “slightly relieves; also recorded: somewhat relieved”. Further, the Anti-Rib entry is “(+)” in assay [5] (day 14), “(+)” in assay [5] (day 21) and “(−)” in assay [5] (day 28). For the same compound, the Anti-Sm entry in assay [5] (day 14), in assay [5] (day 21) and in assay [5] (day 28) was “(+)” in each case. Moreover, the Anti-ssA entry in assay [5] (day 14), in assay [5] (day 21) and in assay [5] (day 28) was “(+)” each time. Further, the Anti-ssB result in assay [5] (day 14), in assay [5] (day 21) and in assay [5] (day 28) was “(+)” each time. The “ENA polypeptide antibodies found positive (FIG. 1)” value in assay [5] is “anti-Sm, anti-ssA and anti-ssB bodies are positive”. The “basilar membrane of renal glomerulus and tubule, pathological section” value in assay [6] is “increased thickness compared with the normal mice”. Besides, the “glomerular basement membrane thickness compared with the normal mice (FIG. 9, FIG. 10)” value in assay [6] is reported as “increased thickness”.
As for `C[C@]12C=CC(=O)C=C1CC[C@@H]1[C@@H]2C(=O)C[C@@]2(C)[C@H]1CC[C@]2(O)C(=O)CO` [Prednisone, prednisone, reference compound], the ANA result in the assay on ANA [2] (day 21) is given as “(+++)”. The ANA entry in the assay with ANA [2] (day 28) is “(+++)”. In addition, the ANA entry in the assay on ANA [3] is listed as “(++++)”. For the same compound, in assay [4], the “proliferative degree of renal glomerular capsule wall epithelial cells” value is listed as “slightly relieves; also recorded: somewhat relieved”. In assay [5] (day 14), the Anti-Rib entry is “(+)”, the Anti-Sm entry was “(+)”, the Anti-ssA entry is given as “(+)” and the Anti-ssB result is given as “(+)”. In assay [5] (day 21), the Anti-Rib result is reported as “(+)”, the Anti-Sm result is recorded as “(+)”, the Anti-ssA entry is reported as “(+)” and the Anti-ssB entry is recorded as “(+)”. Moreover, in assay [5] (day 28), the Anti-Rib entry was “(+)”, the Anti-Sm entry was “(+)”, the Anti-ssA result was “(+)” and the Anti-ssB result was “(+)”. Besides, in assay [5], the “ENA polypeptide antibodies found positive (FIG. 1)” value is “anti-Sm, anti-ssA and anti-ssB bodies are positive”. For the same compound, in assay [6], the “basilar membrane of renal glomerulus and tubule, pathological section” value is recorded as “increased thickness compared with the normal mice”; the “glomerular basement membrane thickness compared with the normal mice (FIG. 9, FIG. 10)” value was “obviously increased thickness”.
Turning to `OCC1=C[C@@H](O)[C@@H]2C=CO[C@@H](O[C@@H]3O[C@H](CO)[C@@H](O)[C@H](O)[C@H]3O)[C@H]12` [aucubin], the “inhibition on lupus erythematosus” value in the assay with lupus erythematosus is given as “relatively obvious inhibition”.
As to `O=C(O)C1=CO[C@@H](O[C@@H]2O[C@H](CO)[C@@H](O)[C@H](O)[C@H]2O)[C@@H]2C(CO)=CC[C@H]12` [geniposidic acid], the “inhibition on lupus erythematosus” value with lupus erythematosus is “relatively obvious inhibition”.
